Data on four compounds can be found in publication PMC9501377, “New Diarylamine KV10.1 Inhibitors and Their Anticancer Potential” (Pharmaceutics, 2022).

The test system of assay [1] is tumour spheroids of Colo357 cells. Also on record: method as in PMID 33808994. The conditions noted are these: cited from earlier work.
Assay [2] deals with T1, KV10.1 (Eag1) (Homo sapiens, UniProt O95259).
T1 construct: expressed in transfected cells; host or cells: HEK-293 (stably transfected)
T1 sequence (O95259 1-962 isoform O95259-2): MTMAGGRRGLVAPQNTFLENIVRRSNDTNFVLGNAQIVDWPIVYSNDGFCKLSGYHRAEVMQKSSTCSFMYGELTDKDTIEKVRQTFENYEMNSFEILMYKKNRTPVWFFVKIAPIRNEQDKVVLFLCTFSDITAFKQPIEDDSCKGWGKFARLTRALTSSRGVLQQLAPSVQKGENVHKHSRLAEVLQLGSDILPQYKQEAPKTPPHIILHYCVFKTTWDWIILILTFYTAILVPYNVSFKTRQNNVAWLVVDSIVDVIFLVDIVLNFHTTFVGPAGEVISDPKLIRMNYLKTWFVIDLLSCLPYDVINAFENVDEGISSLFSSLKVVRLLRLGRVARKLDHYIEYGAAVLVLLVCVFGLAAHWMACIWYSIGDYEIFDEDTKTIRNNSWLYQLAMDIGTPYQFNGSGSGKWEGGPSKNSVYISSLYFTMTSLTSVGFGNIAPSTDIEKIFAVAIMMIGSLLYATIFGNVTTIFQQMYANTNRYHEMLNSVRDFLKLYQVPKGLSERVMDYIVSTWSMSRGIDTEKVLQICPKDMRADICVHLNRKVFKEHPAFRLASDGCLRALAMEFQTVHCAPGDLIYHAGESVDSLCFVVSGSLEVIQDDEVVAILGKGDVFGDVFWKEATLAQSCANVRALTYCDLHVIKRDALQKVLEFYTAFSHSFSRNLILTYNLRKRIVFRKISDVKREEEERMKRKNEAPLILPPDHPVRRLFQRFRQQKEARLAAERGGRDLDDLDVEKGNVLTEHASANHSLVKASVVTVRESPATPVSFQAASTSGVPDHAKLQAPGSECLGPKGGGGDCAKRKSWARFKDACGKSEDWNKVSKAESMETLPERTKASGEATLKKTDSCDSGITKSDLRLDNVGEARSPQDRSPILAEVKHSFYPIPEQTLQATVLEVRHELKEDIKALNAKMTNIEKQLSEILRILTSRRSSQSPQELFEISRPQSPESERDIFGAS
Description: Whole-cell patch-clamp on stably transfected HEK-293 cells expressing KV10.1. The format is cell-based. The following applies: HEK293; 50 μM, HEK-293 cells, patch-clamp, mean ± SEM. How it is done:
For whole-cell patch-clamp measurements, stably transfected HEK-293 cells expressing KV10.1 [26, 27, 28] were grown in DMEM with 10% FCS and 300 µg/mL Zeocin on glass coverslips coated with fibronectin. All experiments were conducted at room temperature under perfusion by gravity with extracellular solution (160 mM NaCl, 2.5 mM KCl, 2 mM CaCl2, 1 mM MgCl2, 10 mM Hepes pH 7.4 with NaOH, 8 mM glucose). Pipettes were made from #1 glass capillaries (WPI) and had 1–3 MΩ resistance. The intracellular solution contained 100 mM KCl, 45 mM N-methyl-D-glucamine, 10 mM 1,2-bis(o-aminophenoxy)ethane-N,N,N′,N′-tetraacetic acid (BAPTA), 10 mM Hepes pH 7.35. Stimulation was applied and data were acquired with an EPC10 Plus amplifier (HEKA Elektronik) controlled with Patch Master software. Compounds were applied with an 8-channel fast solution exchanger (ALA). Compounds were prepared to a stock concentration of 10 mM in DMSO. The control solution contained 0.5% DMSO. Stimuli consisted of 500 ms depolarizations to +40 mV.
All electrophysiological data are presented as means ± SEM of n ≥ 3 independent experiments unless otherwise indicated. Oocyte data were analysed using pClamp Clampfit 10.4 (Molecular Devices, Downingtown, PA, USA) and OriginPro 9 (Originlab, Northampton, MA, USA) or GraphPad Prism 8 software (GraphPad Software, Inc., San Diego, CA, USA). Patch-clamp data analysis was performed using FitMaster (HEKA Electronics), IgorPro (Wavemetrics, Inc., Lake Oswego, OR, USA) and GraphPad Prism 9 (GraphPad Software, Inc., San Diego, CA, USA). The Dunnett test and one-way ANOVA were performed to calculate the significance of the induced inhibition compared to the control (p < 0.05).
In general terms: Patch clamp records ionic current or voltage across a cell membrane.

For the compound `CN(C)CCCOc1ccc(Nc2ccc(C(F)(F)F)cc2[N+](=O)[O-])cc1` [Compound 2], in assay [1], the “apoptosis in tumour spheroids of Colo357 cells” value is given as “induced significant apoptosis”. A word on the inhibition: it is the relative decrease from the control value, in per cent. The low end stands for a response near the control, the high end for a response far below the control. Turning to `O=[N+]([O-])c1cc(C(F)(F)F)ccc1Nc1ccc(OCC(O)CN2CCC(O)(COc3ccc(Cl)c(Cl)c3)CC2)cc1` (stereo not shown) [Compound 16a, 4-((3,4-Dichlorophenoxy)methyl)-1-(2-hydroxy-3-(4-((2-nitro-4-(trifluoromethyl)phenyl)amino)phenoxy)propyl)piperidin-4-ol], in assay [2], the inhibition at 50 µM worked out at 44.6 ± 8.6%. Consider `COc1ccc(OCC2(O)CCN(CC(O)COc3ccc(Nc4ccc(C(F)(F)F)cc4[N+](=O)[O-])cc3)CC2)cc1` (stereo not shown) [Compound 16b, 1-(2-Hydroxy-3-(4-((2-nitro-4-(trifluoromethyl)phenyl)amino)phenoxy)propyl)-4-((4-methoxyphenoxy)methyl)piperidin-4-ol], for which testing at 50 µM in assay [2] gave an inhibition of 60.7 ± 9.6%. `O=C(NC1CCN(CC(O)COc2ccc(Nc3ccc(C(F)(F)F)cc3[N+](=O)[O-])cc2)CC1)c1ccc(Cl)c(Cl)c1` (stereo not shown) [Compound 16c, 3,4-Dichloro-N-(1-(2-hydroxy-3-(4-((2-nitro-4-(trifluoromethyl)phenyl)amino)phenoxy)propyl)piperidin-4-yl)benzamide] returned an inhibition at 50 µM in assay [2] of 26.8 ± 10.1%.
